Data taken from ChEMBL document CHEMBL1201862, “PubChem BioAssay data set” (2004).
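All cell lines were grown in 96-well plates and treated with compound for 48 hours. GI50: concentration for 50% inhibition of growth.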 Active and inactive are the calls of the source. Cut-off read from the data, not from the text of the source: active = GI50 up to about 1.1 µM and inactive = higher.

Tests used:
Assay in all cases: NCI tumour cell line growth inhibition, 48 h
[1] = system: A498
[2] = system: CCRF-CEM
[3] = system: EKVX
[4] = system: HOP-92
[5] = system: K562
[6] = system: LOX IMVI
[7] = system: M14
[8] = system: MDA-N
[9] = system: MOLT-4
[10] = system: NCI-H226
[11] = system: NCI-H23
[12] = system: OVCAR-3
[13] = system: OVCAR-4
[14] = system: RXF 393
[15] = system: SF-268
[16] = system: SF-295
[17] = system: SN12C
[18] = system: SNB-75
[19] = system: UACC-257
[20] = system: SNB-19

Row | Compound | GI50 [1] | GI50 [2] | GI50 [3] | GI50 [4] | GI50 [5] | GI50 [6] | GI50 [7] | GI50 [8] | GI50 [9] | GI50 [10] | GI50 [11] | GI50 [12] | GI50 [13] | GI50 [14] | GI50 [15] | GI50 [16] | GI50 [17] | GI50 [18] | GI50 [19] | GI50 [20]
1 | CCOC(=O)c1[nH]cc(C)c1-c1ccn(-c2ccccc2)c1 | > 100 µM (inactive) | 19.2 µM (inactive) | 27 µM (inactive) | 21.5 µM (inactive) | 21.1 µM (inactive) | 41.8 µM (inactive) | 48.2 µM (inactive) | 35.6 µM (inactive) | 18.3 µM (inactive) | 51.5 µM (inactive) | 49.5 µM (inactive) | 19.6 µM (inactive) | 41.9 µM (inactive) | 36.8 µM (inactive) | 44.7 µM (inactive) | 56.4 µM (inactive) | 89.7 µM (inactive) | 13.3 µM (inactive) | 35.3 µM (inactive) | –
2 | Cc1sc2nc(-c3ccc([N+](=O)[O-])cc3)c(/C=N/N=C(N)N)n2c1C | 1.87 µM (inactive) | 0.206 µM (active) | 1.17 µM (inactive) | 1.33 µM (inactive) | 0.202 µM (active) | 0.398 µM (active) | 0.67 µM (active) | 0.373 µM (active) | 0.83 µM (active) | 1.84 µM (inactive) | 1.43 µM (inactive) | 1.75 µM (inactive) | – | 0.942 µM (active) | 1.65 µM (inactive) | 1.16 µM (inactive) | 1.33 µM (inactive) | – | 1.46 µM (inactive) | 0.721 µM (active)
3 | COC1=CC(=O)c2c(c(COP(=O)(N(C)CCBr)N(C)CCBr)cn2C)C1=O | 0.279 µM (active) | < 0.0158 µM (active) | 0.211 µM (active) | 0.107 µM (active) | 0.0398 µM (active) | 0.194 µM (active) | < 0.0178 µM (active) | 0.109 µM (active) | < 0.01 µM (active) | – | < 0.0326 µM (active) | 0.226 µM (active) | 1.33 µM (inactive) | 0.0574 µM (active) | 0.0431 µM (active) | < 0.01 µM (active) | < 0.01 µM (active) | 0.0826 µM (active) | 0.258 µM (active) | 0.141 µM (active)
4 | O=C(CCO)OCCCCCC/C=C\CCCCCC/C=C\CCCCCCCCOC(=O)CCO | 23.3 µM (inactive) | 3.05 µM (inactive) | 18.3 µM (inactive) | 18.2 µM (inactive) | 15.8 µM (inactive) | 18.4 µM (inactive) | 17.1 µM (inactive) | 17.8 µM (inactive) | 14.6 µM (inactive) | – | 17.9 µM (inactive) | 23 µM (inactive) | 25.3 µM (inactive) | 18.9 µM (inactive) | 18.5 µM (inactive) | 18.3 µM (inactive) | 17.2 µM (inactive) | 19.8 µM (inactive) | 17.2 µM (inactive) | 18.9 µM (inactive)
5 | c1ccc(/C(=N/Nc2ccccn2)c2ncccn2)cc1 | > 100 µM (inactive) | < 0.0183 µM (active) | 0.292 µM (active) | 2.96 µM (inactive) | 0.121 µM (active) | – | 0.386 µM (active) | 16.5 µM (inactive) | 0.0662 µM (active) | 0.201 µM (active) | 1.74 µM (inactive) | 0.386 µM (active) | 1.28 µM (inactive) | 11.3 µM (inactive) | 0.855 µM (active) | 3.6 µM (inactive) | 0.488 µM (active) | 1.87 µM (inactive) | 0.729 µM (active) | 4.26 µM (inactive)
6 | CCN1C(NN)=NS(=O)(=O)c2ccccc21 | > 100 µM (inactive) | > 100 µM (inactive) | > 100 µM (inactive) | > 100 µM (inactive) | > 100 µM (inactive) | > 100 µM (inactive) | > 100 µM (inactive) | > 100 µM (inactive) | > 100 µM (inactive) | > 100 µM (inactive) | > 100 µM (inactive) | > 100 µM (inactive) | > 100 µM (inactive) | > 100 µM (inactive) | > 100 µM (inactive) | > 100 µM (inactive) | > 100 µM (inactive) | – | > 100 µM (inactive) | > 100 µM (inactive)
7 | CCOC(=O)Oc1cc2c(ccn2C)c2c1c1ccccc1n2C(=O)OCC | > 100 µM (inactive) | > 100 µM (inactive) | > 100 µM (inactive) | > 100 µM (inactive) | > 100 µM (inactive) | > 100 µM (inactive) | > 100 µM (inactive) | > 100 µM (inactive) | > 100 µM (inactive) | > 100 µM (inactive) | > 100 µM (inactive) | > 100 µM (inactive) | > 100 µM (inactive) | > 100 µM (inactive) | > 100 µM (inactive) | > 100 µM (inactive) | > 100 µM (inactive) | > 100 µM (inactive) | > 100 µM (inactive) | –
8 | CSC(SC)=C(C(=O)c1ccc(Cl)cc1)n1c(=O)sc2cc(Br)ccc21 | > 100 µM (inactive) | 69.2 µM (inactive) | > 100 µM (inactive) | 31.5 µM (inactive) | 36.5 µM (inactive) | > 100 µM (inactive) | > 100 µM (inactive) | > 100 µM (inactive) | 18.7 µM (inactive) | > 100 µM (inactive) | > 100 µM (inactive) | > 100 µM (inactive) | 50.8 µM (inactive) | > 100 µM (inactive) | > 100 µM (inactive) | > 100 µM (inactive) | > 100 µM (inactive) | – | > 100 µM (inactive) | > 100 µM (inactive)
9 | Cc1c(/N=C/C=C/c2ccccc2)c(=O)n(-c2ccccc2)n1C | 14.7 µM (inactive) | 6.87 µM (inactive) | 27.2 µM (inactive) | 30.3 µM (inactive) | – | 4.86 µM (inactive) | 16.3 µM (inactive) | 18.5 µM (inactive) | 12.9 µM (inactive) | 13.6 µM (inactive) | 23.4 µM (inactive) | 24.5 µM (inactive) | 13 µM (inactive) | 39.7 µM (inactive) | 33.6 µM (inactive) | 14.4 µM (inactive) | 16.1 µM (inactive) | – | 45.3 µM (inactive) | 30.1 µM (inactive)
10 | C[N+](C)(CCCCCC[N+](C)(C)CCCN1C(=O)c2cccc3cccc(c23)C1=O)CCCN1C(=O)c2cccc3cccc(c23)C1=O | > 100 µM (inactive) | > 100 µM (inactive) | > 100 µM (inactive) | > 100 µM (inactive) | > 100 µM (inactive) | > 100 µM (inactive) | – | > 100 µM (inactive) | > 100 µM (inactive) | – | > 100 µM (inactive) | 84.9 µM (inactive) | > 100 µM (inactive) | > 100 µM (inactive) | > 100 µM (inactive) | 41.7 µM (inactive) | > 100 µM (inactive) | – | > 100 µM (inactive) | > 100 µM (inactive)
11 | CCOC(=O)Cc1ccc(Nc2nc3cc(C(F)(F)F)ccc3nc2C(=O)OCC)cc1 | 32.7 µM (inactive) | – | > 100 µM (inactive) | 38.8 µM (inactive) | – | > 100 µM (inactive) | > 100 µM (inactive) | > 100 µM (inactive) | > 100 µM (inactive) | 17.6 µM (inactive) | 34.6 µM (inactive) | > 100 µM (inactive) | 18.9 µM (inactive) | 20.5 µM (inactive) | 37.3 µM (inactive) | 63.2 µM (inactive) | > 100 µM (inactive) | 20.7 µM (inactive) | > 100 µM (inactive) | 27.5 µM (inactive)
